{"source": "patent US8080377B2", "about": "“Method for confirming the exposure on chrysene” (Korea Institute of Science and Technology, priority 2008, dated 2011)", "key": {"[1]": {"test": "Cytotoxicity assay (MTT assay), chrysene treated 48 hours", "assay_type": "cell-based, human", "details": "human, HepG2 cells; HepG2, MTT, 48 hours; read-out: IC20 (concentration exhibiting 80% cell survival rate)", "method": "(§1) The human hepatoma cell line HepG2 (Korean Cell Line Bank) was cultured in DMEM (Gibco-BRL, USA) supplemented with 10% FBS in 100 mm dish until it grew 80%. The present inventors selected chrysene (Sigma-Aldrich, USA) among polycyclic aromatic hydrocarbons known to have carcinogenicity, based on the previous studies and reports. Chrysene was dissolved in DMSO. The concentration of vehicle was up to 0.1% in every experiment.\n(§2) MTT assay with the HepG2 cell line was performed according to the method of Mossman et al. (J. Immunol. Methods, 65: 55-63, 1983). The cells were inoculated in a 24-well plate containing DMEM at the concentration of 4×10^5 cells/well, to which chrysene dissolved in DMSO was treated. 48 hours later, MTT (3-[4,5-dimethylthiazol-2-yl]-2,5-diphenyltetra zolium bromide) was added at the concentration of 5 mg/ml, followed by culture at 37° C. for 3 hours. Then, medium was eliminated and generated formazan crystal was dissolved in 500 μl of DMSO. The solution was aliquoted in a 96 well-plate and OD540 was measured. Cytotoxicity in the HepG2 cell line caused by chrysene was investigated. As a result, IC20 was 34.97 µM (see FIG. 1) and thus the concentration of chrysene for the further experiment was determined as the above."}, "[2]": {"system": "HepG2 cell line", "test": "Cytotoxicity assay (MTT assay), chrysene treated 48 hours", "assay_type": "cell-based, human", "details": "HepG2", "method": "as §1, §2"}, "[3]": {"system": "HepG2 cells", "test": "Quantitative real time RT-PCR of genes up- or down-regulated by chrysene", "assay_type": "cell-based, human", "method": "[…]\nTo investigate and quantify the expressions of those genes, primers which can specifically proliferate of those genes' mRNA (see Table 4) were prepared, and quantitative real time RT-PCR was performed using My IQ Real-time PCR (Bio-rad, USA). […] To quantify PCR product, SYBR Green I (Bio-rad, USA) staining was performed. SYBR Green I staining is based on binding to double stranded DNA, so that as double stranded DNA increases during PCR, fluorescence intensity increases. […]"}, "[4]": {"system": "salmonella TA110 and TA98 strains", "details": "even under normal metabolic activity of the liver (rats); cited from earlier work"}}}
{"molecule": "c1ccc2c(c1)ccc1c3ccccc3ccc21", "note": "[chrysene]", "values": [{"measurement": "IC20 at 48 h", "setting": "[1]", "result": 35, "unit": "µM"}, {"measurement": "cytotoxicity in the human hepatoma cell line", "setting": "[2]", "result": "demonstrated cytotoxicity"}, {"measurement": "expression profiles of 25 up-regulated genes and 10 down-regulated genes", "setting": "[3]", "result": "consistent with the result of oligo-microarray"}, {"measurement": "mutagenicity in Ames tests", "setting": "[4]", "result": "showed mutagenicity"}]}
